Reference: PubChem BioAssay AID1918956 (Molecular Pharmacology Branch, DTP, NCI, 2023)
“And” between values parts separate entries of the source, which are not always exact repeats. Equal entries are not always repeated.

Test system: OVCAR-5 complex spheroids, viability
Test: Anticancer human tumor OVCAR-5 cell line growth inhibition;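 note: spheroids exposed to agents for seven days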;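 for viability, T/C: 100% = DMSO vehicle control wells viability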
Settings: for viability, T/C: stronger effect = lower value
In short: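 Drug combinations with the LSD1 inhibitor iadademstat tested on tumor cells co-cultured as spheroids with endothelial cells and mesenchymal stem cells. Concentrations descended in half-log increments from clinical Cmax or 10 microM.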

[1] = curve of first compound, second compound 0.1 µM
[2] = curve of first compound, second compound 0.316 µM
[3] = curve of first compound, second compound 1 µM
[4] = curve of first compound, second compound 3.16 µM
[5] = curve of first compound, second compound 10 µM
[6] = second compound 0.1 µM, first compound 0.00949 µM
[7] = second compound 0.1 µM, first compound 0.03 µM
[8] = second compound 0.1 µM, first compound 0.0949 µM
[9] = second compound 0.1 µM, first compound 0.3 µM
[10] = second compound 0.1 µM, first compound 0.949 µM
[11] = second compound 0.1 µM, first compound 3 µM
[12] = second compound 0.316 µM, first compound 0.00949 µM
[13] = second compound 0.316 µM, first compound 0.03 µM
[14] = second compound 0.316 µM, first compound 0.0949 µM
[15] = second compound 0.316 µM, first compound 0.3 µM
[16] = second compound 0.316 µM, first compound 0.949 µM
[17] = second compound 0.316 µM, first compound 3 µM
[18] = second compound 1 µM, first compound 0.00949 µM
[19] = second compound 1 µM, first compound 0.03 µM
[20] = second compound 1 µM, first compound 0.0949 µM
[21] = second compound 1 µM, first compound 0.3 µM
[22] = second compound 1 µM, first compound 0.949 µM
[23] = second compound 1 µM, first compound 3 µM
[24] = second compound 3.16 µM, first compound 0.00949 µM
[25] = second compound 3.16 µM, first compound 0.03 µM
[26] = second compound 3.16 µM, first compound 0.0949 µM
[27] = second compound 3.16 µM, first compound 0.3 µM
[28] = second compound 3.16 µM, first compound 0.949 µM
[29] = second compound 3.16 µM, first compound 3 µM
[30] = second compound 10 µM, first compound 0.00949 µM
[31] = second compound 10 µM, first compound 0.03 µM
[32] = second compound 10 µM, first compound 0.0949 µM
[33] = second compound 10 µM, first compound 0.3 µM
[34] = second compound 10 µM, first compound 0.949 µM
[35] = second compound 10 µM, first compound 3 µM
[36] = second compound 0.1 µM, first compound 0.0316 µM
[37] = second compound 0.1 µM, first compound 0.1 µM
[38] = second compound 0.316 µM, first compound 0.0316 µM
[39] = second compound 0.316 µM, first compound 0.1 µM
[40] = second compound 1 µM, first compound 0.0316 µM
[41] = second compound 1 µM, first compound 0.1 µM
[42] = second compound 3.16 µM, first compound 0.0316 µM
[43] = second compound 3.16 µM, first compound 0.1 µM
[44] = second compound 10 µM, first compound 0.0316 µM
[45] = second compound 10 µM, first compound 0.1 µM

CCN(c1cc(-c2ccc(CN3CCOCC3)cc2)cc(C(=O)NCc2c(C)cc(C)[nH]c2=O)c1C)C1CCOCC1 + NC1CCC(NC2CC2c2ccccc2)CC1
IC50 [1]: > 3 µM
IC50 [2]: > 3 µM
IC50 [3]: > 3 µM
IC50 [4]: > 3 µM
IC50 [5]: > 3 µM
viability, T/C [6]: 116%
viability, T/C [7]: 110%
viability, T/C [8]: 96.1%
viability, T/C [9]: 100%
viability, T/C [10]: 106%
viability, T/C [11]: 101%
viability, T/C [12]: 109%
viability, T/C [13]: 114%
viability, T/C [14]: 101%
viability, T/C [15]: 108%
viability, T/C [16]: 103%
viability, T/C [17]: 101%
viability, T/C [18]: 92.4%
viability, T/C [19]: 105%
viability, T/C [20]: 90.6%
viability, T/C [21]: 97%
viability, T/C [22]: 96.5%
viability, T/C [23]: 87.6%
viability, T/C [24]: 96%
viability, T/C [25]: 94.5%
viability, T/C [26]: 94%
viability, T/C [27]: 81.4%
viability, T/C [28]: 89.9%
viability, T/C [29]: 94.4%
viability, T/C [30]: 88.2%
viability, T/C [31]: 82.1%
viability, T/C [32]: 93.7%
viability, T/C [33]: 79.9%
viability, T/C [34]: 72.5%
viability, T/C [35]: 76.4%

CC(C)CC(NC(=O)C(Cc1ccccc1)NC(=O)c1cnccn1)B(O)O (centres undefined)
viability, T/C (compound 0.000316 µM): 101% and 95.8%
viability, T/C (compound 0.001 µM): 108% and 93.7%
viability, T/C (compound 0.00316 µM): 79.5% and 72.4%
viability, T/C (compound 0.01 µM): 44.7% and 39.4%
viability, T/C (compound 0.0316 µM): 19.9% and 15.4%
viability, T/C (compound 0.1 µM): 10% and 7.18%
IC50 (curve of compound): 0.0084 µM and 0.00694 µM

COc1cc(C2c3cc4c(cc3C(OC3OC5COC(C)OC5C(O)C3O)C3COC(=O)C23)OCO4)cc(OC)c1O (centres undefined) + NC1CCC(NC2CC2c2ccccc2)CC1
IC50 [1]: 0.836 µM
IC50 [2]: 0.763 µM
IC50 [3]: 0.89 µM
IC50 [4]: 0.737 µM
IC50 [5]: 0.712 µM
viability, T/C [6]: 113%
viability, T/C [7]: 105%
viability, T/C [8]: 100%
viability, T/C [9]: 73.5%
viability, T/C [10]: 45.6%
viability, T/C [11]: 41.4%
viability, T/C [12]: 106%
viability, T/C [13]: 106%
viability, T/C [14]: 100%
viability, T/C [15]: 71%
viability, T/C [16]: 43.6%
viability, T/C [17]: 43.9%
viability, T/C [18]: 98.7%
viability, T/C [19]: 106%
viability, T/C [20]: 103%
viability, T/C [21]: 76.7%
viability, T/C [22]: 50%
viability, T/C [23]: 44.2%
viability, T/C [24]: 99.9%
viability, T/C [25]: 105%
viability, T/C [26]: 103%
viability, T/C [27]: 70.9%
viability, T/C [28]: 42.8%
viability, T/C [29]: 45.4%
viability, T/C [30]: 89.4%
viability, T/C [31]: 93%
viability, T/C [32]: 82.9%
viability, T/C [33]: 67.7%
viability, T/C [34]: 42.5%
viability, T/C [35]: 40.9%

CC1COCCN1c1cc(C2(S(C)(=N)=O)CC2)nc(-c2ccnc3[nH]ccc23)n1 (centres undefined) + NC1CCC(NC2CC2c2ccccc2)CC1
IC50 [1]: 2.53 µM
IC50 [2]: 2.62 µM
IC50 [3]: 3.03 µM
IC50 [4]: 2.7 µM
IC50 [5]: 2.2 µM
viability, T/C [36]: 102%
viability, T/C [37]: 116%
viability, T/C (second compound 0.1 µM, first compound 0.316 µM): 97.7%
viability, T/C (second compound 0.1 µM, first compound 1 µM): 69.9%
viability, T/C (second compound 0.1 µM, first compound 3.16 µM): 47.4%
viability, T/C (second compound 0.1 µM, first compound 10 µM): 35.6%
viability, T/C [38]: 108%
viability, T/C [39]: 103%
viability, T/C (second compound 0.316 µM, first compound 0.316 µM): 94.7%
viability, T/C (second compound 0.316 µM, first compound 1 µM): 70%
viability, T/C (second compound 0.316 µM, first compound 3.16 µM): 45.8%
viability, T/C (second compound 0.316 µM, first compound 10 µM): 37.2%
viability, T/C [40]: 109%
viability, T/C [41]: 99.5%
viability, T/C (second compound 1 µM, first compound 0.316 µM): 97.8%
viability, T/C (second compound 1 µM, first compound 1 µM): 70.9%
viability, T/C (second compound 1 µM, first compound 3.16 µM): 50.5%
viability, T/C (second compound 1 µM, first compound 10 µM): 36%
viability, T/C [42]: 104%
viability, T/C [43]: 106%
viability, T/C (second compound 3.16 µM, first compound 0.316 µM): 97%
viability, T/C (second compound 3.16 µM, first compound 1 µM): 70.2%
viability, T/C (second compound 3.16 µM, first compound 3.16 µM): 48.4%
viability, T/C (second compound 3.16 µM, first compound 10 µM): 37.1%
viability, T/C [44]: 84%
viability, T/C [45]: 82.4%
viability, T/C (second compound 10 µM, first compound 0.316 µM): 79.2%
viability, T/C (second compound 10 µM, first compound 1 µM): 61.3%
viability, T/C (second compound 10 µM, first compound 3.16 µM): 45.3%
viability, T/C (second compound 10 µM, first compound 10 µM): 34%

O=C(C=Cc1cccc(S(=O)(=O)Nc2ccccc2)c1)NO
viability, T/C (compound 0.00949 µM): 89.1% and 94.7%
viability, T/C (compound 0.03 µM): 88.7% and 80.5%
viability, T/C (compound 0.0949 µM): 61.9% and 55.5%
viability, T/C (compound 0.3 µM): 31.6% and 27.4%
viability, T/C (compound 0.949 µM): 15.4% and 10.4%
viability, T/C (compound 3 µM): 4.04% and 2.72%
IC50 (curve of compound): 0.156 µM and 0.118 µM

CC(C)CC(NC(=O)C(Cc1ccccc1)NC(=O)c1cnccn1)B(O)O (centres undefined) + NC1CCC(NC2CC2c2ccccc2)CC1
IC50 [1]: 0.00778 µM
IC50 [2]: 0.00849 µM
IC50 [3]: 0.00789 µM
IC50 [4]: 0.00742 µM
IC50 [5]: 0.0064 µM
viability, T/C (second compound 0.1 µM, first compound 0.000316 µM): 92%
viability, T/C (second compound 0.1 µM, first compound 0.001 µM): 100%
viability, T/C (second compound 0.1 µM, first compound 0.00316 µM): 84.3%
viability, T/C (second compound 0.1 µM, first compound 0.01 µM): 39.5%
viability, T/C [36]: 16.2%
viability, T/C [37]: 6.2%
viability, T/C (second compound 0.316 µM, first compound 0.000316 µM): 97.3%
viability, T/C (second compound 0.316 µM, first compound 0.001 µM): 97.9%
viability, T/C (second compound 0.316 µM, first compound 0.00316 µM): 87.4%
viability, T/C (second compound 0.316 µM, first compound 0.01 µM): 42.6%
viability, T/C [38]: 16.1%
viability, T/C [39]: 5.03%
viability, T/C (second compound 1 µM, first compound 0.000316 µM): 88.6%
viability, T/C (second compound 1 µM, first compound 0.001 µM): 98.8%
viability, T/C (second compound 1 µM, first compound 0.00316 µM): 85.2%
viability, T/C (second compound 1 µM, first compound 0.01 µM): 39.9%
viability, T/C [40]: 15.4%
viability, T/C [41]: 5.03%
viability, T/C (second compound 3.16 µM, first compound 0.000316 µM): 79.8%
viability, T/C (second compound 3.16 µM, first compound 0.001 µM): 104%
viability, T/C (second compound 3.16 µM, first compound 0.00316 µM): 78.6%
viability, T/C (second compound 3.16 µM, first compound 0.01 µM): 39%
viability, T/C [42]: 13.6%
viability, T/C [43]: 4.87%
viability, T/C (second compound 10 µM, first compound 0.000316 µM): 84.4%
viability, T/C (second compound 10 µM, first compound 0.001 µM): 82.3%
viability, T/C (second compound 10 µM, first compound 0.00316 µM): 73.4%
viability, T/C (second compound 10 µM, first compound 0.01 µM): 35.1%
viability, T/C [44]: 10.2%
viability, T/C [45]: 3.83%
